Structures are written as SMILES. Read-outs that look alike come from different tables or passages of the source.

We go through four compounds from patent publication US11324729B2, “NSD family inhibitors and methods of treatment therewith” (The Regents of the University of Michigan, priority 2017, dated 2022).

The target in experiment [1] is NSD1 (Homo sapiens, UniProt Q96L73). The experiment is described as follows: HSQC NMR spectrum of NSD1 with compound. The experiment is classed as binding. Particulars: 150 μM NSD1 with 300 μM compound; including Cys2062. Here is the method: (§1) 10 μM 151 was incubated with NSD1 for 20 h. B. HSQC spectrum of 150 μM NSD1 with 300 μM 151.
Target sequence in this assay (Q96L73 whole entry, the tested form may be a part): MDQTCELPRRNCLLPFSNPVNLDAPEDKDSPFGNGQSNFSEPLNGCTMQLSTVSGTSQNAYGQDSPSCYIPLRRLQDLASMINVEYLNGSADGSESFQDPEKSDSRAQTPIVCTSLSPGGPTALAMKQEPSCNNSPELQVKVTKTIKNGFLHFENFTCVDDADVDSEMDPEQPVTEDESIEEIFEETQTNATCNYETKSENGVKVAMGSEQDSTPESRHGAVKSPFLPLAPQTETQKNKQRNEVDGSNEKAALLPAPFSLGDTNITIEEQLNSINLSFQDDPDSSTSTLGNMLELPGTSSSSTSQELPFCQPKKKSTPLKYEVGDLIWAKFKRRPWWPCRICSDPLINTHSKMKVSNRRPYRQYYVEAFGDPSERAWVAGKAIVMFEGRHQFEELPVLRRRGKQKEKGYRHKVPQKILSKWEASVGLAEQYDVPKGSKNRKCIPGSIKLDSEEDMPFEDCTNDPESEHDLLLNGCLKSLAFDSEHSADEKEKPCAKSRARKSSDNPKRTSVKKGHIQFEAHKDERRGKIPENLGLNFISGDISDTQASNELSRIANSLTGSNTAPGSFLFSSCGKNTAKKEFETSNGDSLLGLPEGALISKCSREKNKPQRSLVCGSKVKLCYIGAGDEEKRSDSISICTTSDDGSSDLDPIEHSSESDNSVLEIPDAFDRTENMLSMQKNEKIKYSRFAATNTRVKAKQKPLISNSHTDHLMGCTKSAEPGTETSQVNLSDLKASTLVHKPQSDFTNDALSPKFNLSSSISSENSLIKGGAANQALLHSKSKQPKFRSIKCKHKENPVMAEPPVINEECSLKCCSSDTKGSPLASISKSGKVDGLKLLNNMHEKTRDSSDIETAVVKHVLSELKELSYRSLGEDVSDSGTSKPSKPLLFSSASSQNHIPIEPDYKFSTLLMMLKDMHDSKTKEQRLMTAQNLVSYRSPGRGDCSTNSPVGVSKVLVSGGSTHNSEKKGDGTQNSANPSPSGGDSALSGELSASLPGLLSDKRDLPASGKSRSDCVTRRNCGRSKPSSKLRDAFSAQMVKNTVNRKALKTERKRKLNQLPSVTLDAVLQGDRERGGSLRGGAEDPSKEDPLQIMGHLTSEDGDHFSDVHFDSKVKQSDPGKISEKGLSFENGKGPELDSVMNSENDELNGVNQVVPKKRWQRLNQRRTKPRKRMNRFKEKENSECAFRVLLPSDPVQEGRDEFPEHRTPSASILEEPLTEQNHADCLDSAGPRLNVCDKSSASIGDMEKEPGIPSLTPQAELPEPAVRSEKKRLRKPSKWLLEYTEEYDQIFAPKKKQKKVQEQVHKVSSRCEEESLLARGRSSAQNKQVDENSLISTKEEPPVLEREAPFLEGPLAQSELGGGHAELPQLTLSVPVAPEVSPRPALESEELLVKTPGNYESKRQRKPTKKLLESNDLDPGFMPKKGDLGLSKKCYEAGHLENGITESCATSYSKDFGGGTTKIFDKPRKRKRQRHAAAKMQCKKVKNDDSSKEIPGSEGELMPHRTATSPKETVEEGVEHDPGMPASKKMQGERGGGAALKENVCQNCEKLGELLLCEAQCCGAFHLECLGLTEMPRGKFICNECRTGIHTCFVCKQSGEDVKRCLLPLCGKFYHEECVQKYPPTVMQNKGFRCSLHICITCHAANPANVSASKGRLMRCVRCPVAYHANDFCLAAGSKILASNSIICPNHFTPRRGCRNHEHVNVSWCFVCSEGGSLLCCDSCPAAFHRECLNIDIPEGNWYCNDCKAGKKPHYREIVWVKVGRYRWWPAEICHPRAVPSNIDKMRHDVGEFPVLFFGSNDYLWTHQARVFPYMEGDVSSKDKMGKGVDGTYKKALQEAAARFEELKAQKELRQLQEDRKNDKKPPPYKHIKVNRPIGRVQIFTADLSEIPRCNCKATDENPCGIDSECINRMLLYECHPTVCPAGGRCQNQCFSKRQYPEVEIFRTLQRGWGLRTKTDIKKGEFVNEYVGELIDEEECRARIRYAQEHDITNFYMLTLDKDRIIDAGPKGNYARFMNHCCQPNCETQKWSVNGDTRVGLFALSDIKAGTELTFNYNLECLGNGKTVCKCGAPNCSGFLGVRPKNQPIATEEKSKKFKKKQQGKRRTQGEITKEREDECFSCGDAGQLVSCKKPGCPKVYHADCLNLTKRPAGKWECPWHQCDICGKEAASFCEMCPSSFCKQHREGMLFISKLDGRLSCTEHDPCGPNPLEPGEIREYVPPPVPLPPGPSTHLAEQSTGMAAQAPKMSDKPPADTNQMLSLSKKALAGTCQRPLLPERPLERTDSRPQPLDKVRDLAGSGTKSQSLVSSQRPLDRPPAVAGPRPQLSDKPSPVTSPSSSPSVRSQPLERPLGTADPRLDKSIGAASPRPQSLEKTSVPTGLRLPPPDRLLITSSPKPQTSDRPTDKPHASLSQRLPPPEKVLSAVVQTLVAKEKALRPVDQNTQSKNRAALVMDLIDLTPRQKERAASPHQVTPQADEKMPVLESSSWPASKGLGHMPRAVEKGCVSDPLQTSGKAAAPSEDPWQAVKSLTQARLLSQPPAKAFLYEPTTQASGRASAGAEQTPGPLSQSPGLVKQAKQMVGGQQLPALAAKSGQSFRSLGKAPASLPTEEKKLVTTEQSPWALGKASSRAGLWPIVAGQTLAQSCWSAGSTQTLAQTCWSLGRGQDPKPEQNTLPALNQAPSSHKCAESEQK
Experiment [2] concerns the target T1, NSD1 (Homo sapiens, UniProt Q96L73).
T1 construct: 6 μM of 159 was incubated with 1 mM of NSD1 SET domain for 8 hours
T1 sequence (Q96L73 1852-2082 limits assumed): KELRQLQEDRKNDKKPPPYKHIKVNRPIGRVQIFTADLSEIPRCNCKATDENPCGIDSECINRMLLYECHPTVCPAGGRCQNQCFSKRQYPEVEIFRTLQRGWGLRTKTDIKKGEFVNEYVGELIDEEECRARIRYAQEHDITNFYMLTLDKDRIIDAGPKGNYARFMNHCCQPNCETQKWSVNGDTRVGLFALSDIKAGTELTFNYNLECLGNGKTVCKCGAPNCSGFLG
The experiment is described as follows: Mass spectrometry detection of covalent/irreversible binding to NSD1. On the procedure:
as §1
6 μM of 159 was incubated with 1 mM of NSD1 SET domain for 8 hours.
FIG. 7. […] Asterisk denotes covalent protein adduct with 198.

In experiment [3] the test system is Nup98-NSD1 subcutaneous model. The experiment is described as follows: Nup98-NSD1 subcutaneous leukemia model in mice. The experiment is classed as in vivo. Particulars: 25 mg/kg q.d., I.P. On the procedure:
FIG. 6A-F. Pharmacokinetics and efficacy of 159 in Nup98-NSD1 leukemia model. A. Pharmacokinetics studies in mice treated with 25 mg/kg of 159 using I.P. administration. B. Efficacy in Nup98-NSD1 subcutaneous model. Mice were treated with 25 mg/kg q.d., I.P. C. Representative tumors from vehicle and 159 treated mice. […] E. Immuno-histochemistry analysis of H3K36me2 level in tumor samples of mice treated with vehicle (top) and 159 (bottom). […] F. Body weight of 159 treated animals.

For a further experiment, the system named is HM-2 cells. The experiment can be described thus: MTT proliferation assay, control HM-2 cells. The experiment is classed as cell-based. For orientation: Tetrazolium dyes change colour on reduction, which living cells bring about.
Experiment [4] deals with Nup98-NSD1 cells. The experiment can be described thus: Cytospins, differentiation of Nup98-NSD1 cells. It counts as cell-based.
Experiment [5] addresses T2, NSD1 (1753-2095 fragment) (Homo sapiens, UniProt Q96L73).
T2 construct: expressed in transfected cells; host or cells: HeLa cells
T2 sequence (Q96L73 1753-2095): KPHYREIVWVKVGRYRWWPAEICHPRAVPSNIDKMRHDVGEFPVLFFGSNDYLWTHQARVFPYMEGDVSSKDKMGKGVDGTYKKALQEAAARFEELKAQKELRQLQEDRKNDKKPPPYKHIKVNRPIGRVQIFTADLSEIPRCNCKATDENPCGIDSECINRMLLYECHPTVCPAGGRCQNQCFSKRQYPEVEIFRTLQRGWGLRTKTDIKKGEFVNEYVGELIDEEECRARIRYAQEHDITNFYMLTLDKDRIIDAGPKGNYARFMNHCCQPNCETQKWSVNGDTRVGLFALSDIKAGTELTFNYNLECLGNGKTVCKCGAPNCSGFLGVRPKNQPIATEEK
The experiment is described as follows: CETSA assay in HeLa cells. The experiment is classed as cell-based. Particulars: HeLa cells treated with 5 μM compound.

For experiment [6], the system named is Nup98-NSD1 cells. The experiment can be described thus: MTT growth inhibition assay, Nup98-NSD1 cells. It counts as cell-based. Particulars: 3, 7 and 10 days.
For the next experiment, the system named is ZR-75-1. The experiment can be described thus: MTT viability, 7 days treatment, ZR-75-1. The experiment is classed as cell-based. Particulars: Homo sapiens, 168 h, ZR-75-1, 7 days treatment. The source says: (§2) FIG. 8. Activity of NSD inhibitors in breast cancer cell lines.
The subject of a further experiment is MDA-MB-468. The experiment is described as follows: MTT viability, 7 days treatment, MDA-MB-468. The experiment is classed as cell-based. Particulars: Homo sapiens, 168 h, MDA-MB-468, 7 days treatment.
Description: as §2

In the next experiment the test system is MCF7. The experiment can be described thus: MTT viability, 7 days treatment, MCF7. It counts as cell-based. Particulars: Homo sapiens, 168 h, MCF7, 7 days treatment.
Description: as §2

The next experiment concerns SUM44. The experiment is described as follows: Viability, 7 days treatment, SUM44. The experiment is classed as cell-based. The conditions noted are these: 168 h; SUM44, 7 days treatment.
Description: as §2

Turning to `CC1CN1c1cc(O)c2nc(N)sc2c1` (stereo not shown) [Compound 151], the “HSQC spectrum perturbation of NSD1 residues” value at NSD1 [1] is “Several perturbed residues”. Moreover, on NSD1 [2] (10 μM compound incubated with NSD1 for 20 h), the “Irreversible binding to NSD1 detected by MS” value is listed as “Irreversible binding”.

On to `Nc1nc2c(O)cc(N3CC3Cc3ccccc3Cl)cc2s1` (stereo not shown) [Compound 159, 2-Amino-6-(2-(2-chlorobenzyl)aziridin-1-yl)benzo[d]thiazol-4-ol], for which, in experiment [3], the “Expression of Hoxa7 in tumors” value was “reduced expression of Hoxa7” and the “H3K36me2 level in tumor samples (immuno-histochemistry)” value is “Strong reduction of H3K36me2 level”. Moreover, the “Covalent engagement of NSD1 by mass spectrometry” value at NSD1 [2] (6 μM compound incubated with 1 mM of NSD1 SET domain for 8 hours) was “binds covalently”. The “Proliferation of control HM-2 cells (MTT)” value in the experiment with HM-2 cells is recorded as “does not inhibit proliferation”. The “Differentiation of Nup98-NSD1 cells (cytospins)” value in the experiment on Nup98-NSD1 cells [4] is recorded as “differentiation of Nup98-NSD1 cells induced”. Also, the “CETSA stabilization of NSD1 (1753-2095 fragment)” value in experiment [5] is listed as “stabilization of NSD1”. In addition, the “Growth inhibition of Nup98-NSD1 cells (MTT)” value in the experiment with Nup98-NSD1 cells [6] was “time-dependent (3, 7 and 10 days) growth inhibition”.

The term GI50 denotes the concentration at which growth is held to half of that of the control. Take `C=CS(=O)(=O)NCc1cccc(NCC#Cc2cc(O)c3nc(N)sc3c2)c1F` [Compound 225]: the GI50 worked out at 53 nM in the experiment on ZR-75-1 (read-out: GI50, viability); 31 nM in the experiment with MDA-MB-468 (read-out: GI50, viability); 487 nM with MCF7 (read-out: GI50, viability); 341 nM in the experiment on SUM44.

As to `C=CS(=O)(=O)NCc1cccc(NCC#Cc2cc(O)c3nc(N)sc3c2)c1Cl` [Compound 230], the GI50 is 100 nM in the experiment with ZR-75-1 (read-out: GI50, MTT viability); 35 nM in the experiment with MDA-MB-468 (read-out: GI50, MTT viability); 1500 nM in the experiment on MCF7 (read-out: GI50, MTT viability).
